According to patent US9676758B2, “1-heteroaryl-indoline-4-carboxamides as modulators of GPR52 useful for the treatment or prevention of disorders related thereto” (Arena Pharmaceuticals, Inc., priority 2015, dated 2017):

Experiments:
[1] = Brain penetration (plasma and brain exposure); type: in vivo, mouse; conditions: male C57BL6 mice, 60 minute time point
Method: Plasma and brain exposure were evaluated to determine the brain penetration of compounds described herein. Male C57BL6 mice were administered a single per oral (PO) dose of compound at 3 or 10 mg/kg (as a free base) formulated in 20% HPCD in 0.9% NaCl. Blood and brain samples were collected 60 minutes post-dose (n=3-6 animals). Blood was collected via cardiac puncture and stored on ice prior to the separation of plasma by centrifugation. Brains were extracted from the cranium and frozen on dry ice. Tissue samples were stored at approximately −80° C. prior to bioanalytical analysis.
Analyte plasma and brain concentrations were determined by LC/MS/MS.

[2] = biological target: T1, recombinant GPR52 (Homo sapiens, UniProt Q9Y2T5); experiment: HTRF cAMP assay for direct cAMP measurement; type: cell-based; conditions: mean EC50; CHO-K1 or HEK293 cells stably expressing recombinant GPR52
T1 construct: expressed in transfected cells
Method: HTRF cAMP assays were performed using commercially available assay kits according to the manufacturer's instructions (cAMP Dynamic 2 Assay Kit; #62AM4PEJ, Cisbio Bioassays, Bedford, Mass.). CHO-K1 or HEK293 cells stably expressing recombinant GPR52 were harvested and resuspended in assay buffer (PBS containing 0.5 mM IBMX and 0.1% BSA) at a density of 1.2×10^6 cells per mL. […] Test compounds were solubilized and serially diluted in DMSO using 5-fold dilutions to generate 10-point dose response curves. These serially diluted samples were then further diluted in PBS to achieve a 2× stock. The diluted compounds were transferred to triplicate assay plates (5 μL per well to achieve the 1× final assay concentration). A positive control was included in each assay run. After one-hour incubation at room temperature, 5 μL of cAMP D2 reagent diluted in lysis buffer was added to each well, followed by 5 μL of cryptate reagent. Plates were then incubated at room temperature for one hour prior to reading. Time-resolved fluorescence measurements were collected on an HTRF-capable plate reader (e.g., EnVision® (PerkinElmer, Waltham, Mass.) or PHERAstar (BMG LABTECH, Cary, N.C.)). Counts from the plate reader were fit to the cAMP standard curve included on each plate to determine the amount of cAMP in each test well. Dose-response curves were generated from the cAMP data and analyzed using a nonlinear least squares curve-fitting program to obtain EC50 values.

[3] = test system: male C57/BL6 mice; experiment: Mouse basal locomotor activity; type: in vivo; conditions: po, 10 mg/kg P.O.
Method: To measure basal locomotor activity, male C57/BL6 mice (8-16 weeks) (Jackson Laboratories, Sacramento, Calif.) were transferred in home cages to the testing room approximately 60 minutes prior to testing. Approximately 15 minutes after arrival in the testing room, a dark cycle commenced, with lights turning off and infrared lights turning on for experimenter visibility. Thirty minutes after the lights were turned off, animals were individually weighed and administered either vehicle (20% hydroxypropyl-β-cyclodextrin) Compound 13 (1, 2, 5, 10, or 20 mg/kg P.O.), or another GPR52 agonist (10 mg/kg P.O.) and returned to home cages. Fifteen minutes later, mice were placed into locomotor cages and activity was recorded for 60 minutes.

T1 sequence (Q9Y2T5 whole entry): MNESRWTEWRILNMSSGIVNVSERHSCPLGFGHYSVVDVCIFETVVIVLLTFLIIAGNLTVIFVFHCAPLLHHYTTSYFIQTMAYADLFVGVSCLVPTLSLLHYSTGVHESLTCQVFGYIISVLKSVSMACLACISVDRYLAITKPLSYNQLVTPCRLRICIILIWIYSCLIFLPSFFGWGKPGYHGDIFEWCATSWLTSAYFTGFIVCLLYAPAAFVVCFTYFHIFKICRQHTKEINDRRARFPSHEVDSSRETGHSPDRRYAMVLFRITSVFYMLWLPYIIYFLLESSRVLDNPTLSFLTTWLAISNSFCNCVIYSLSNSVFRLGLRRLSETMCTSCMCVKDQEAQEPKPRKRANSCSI

SMILES | Brain/Plasma Ratio ([1]; PO dose 10 mg/kg) | EC50 [2] | inhibition at 10 mg/kg [3] | Brain/Plasma Ratio ([1]; PO dose 3 mg/kg)
COc1ccc(Cc2ccnc(N3CCc4c(C(=O)NCCO)cccc43)c2)cc1F [Compound 69, 1-(4-(3-Fluoro-4-methoxybenzyl)pyridin-2-yl)-N-(2-hydroxyethyl)indoline-4-carboxamide] | 0.87 | 3.11 nM | – | –
O=C(NCCO)c1c(F)ccc2c1CCN2c1cc(Cc2cccc(C(F)(F)F)c2)ccn1 [Compound 108, 5-Fluoro-N-(2-hydroxyethyl)-1-(4-(3-(trifluoromethyl)benzyl)pyridin-2-yl)indoline-4-carboxamide] | 1.67 | – | – | –
COC[C@@H](O)CNC(=O)c1cccc2c1CCN2c1cc(Cc2cc(F)c(F)c(F)c2)ccn1 [Compound 138, (S)—N-(2-Hydroxy-3-methoxypropyl)-1-(4-(3,4,5-trifluorobenzyl)pyridin-2-yl)indoline-4-carboxamide] | – | – | 72% | –
NC(=O)c1cccc2c1CCN2c1cc(Cc2cncc(C(F)(F)F)c2)ccn1 [Compound 47, 1-(4-((5-(Trifluoromethyl)pyridin-3-yl)methyl)pyridin-2-yl)indoline-4-carboxamide] | 4.67 | – | – | –
C[C@@H](O)CNC(=O)c1cccc2c1CCN2c1cc(Cc2cc(F)c(F)c(F)c2)ccn1 [Compound 179, (R)—N-(2-Hydroxypropyl)-1-(4-(3,4,5-trifluorobenzyl)pyridin-2-yl)indoline-4-carboxamide] | – | – | 68% | –
O=C(NC[C@@H](F)CO)c1cccc2c1CCN2c1cc(Cc2cc(F)c(F)c(F)c2)ccn1 [Compound 166, (R)—N-(2-Fluoro-3-hydroxypropyl)-1-(4-(3,4,5-trifluorobenzyl)pyridin-2-yl)indoline-4-carboxamide] | 2.85 | 12.2 nM | 70% | –
COc1ccc(Cc2ccnc(N3CCc4c3ccc(F)c4C(=O)NC[C@@H](F)CO)c2)cc1F [Compound 167, (R)-5-Fluoro-N-(2-fluoro-3-hydroxypropyl)-1-(4-(3-fluoro-4-methoxybenzyl)pyridin-2-yl)indoline-4-carboxamide] | – | 18.2 nM | 62% | –
COc1ccc(Cc2ccnc(N3CCc4c(C(=O)NC[C@@H](F)CO)cccc43)c2)cc1F [Compound 202, (R)—N-(2-Fluoro-3-hydroxypropyl)-1-(4-(3-fluoro-4-methoxybenzyl)pyridin-2-yl)indoline-4-carboxamide] | – | – | 67% | –
O=C(NCCO)c1cccc2c1CCN2c1cc(Cc2cc(F)c(F)c(F)c2)ccn1 [Compound 92, N-(2-Hydroxyethyl)-1-(4-(3,4,5-trifluorobenzyl)pyridin-2-yl)indoline-4-carboxamide] | 3.00 | 8.87 nM | 65% | –
NC(=O)c1cccc2c1CCN2c1cc(Cc2ccc3occc3c2)ccn1 [Compound 106, 1-(4-(Benzofuran-5-ylmethyl)pyridin-2-yl)indoline-4-carboxamide] | – | – | 81% | –
NC(=O)c1cccc2c1CCN2c1cc(Cc2ccc(F)c(Cl)c2)ccn1 [Compound 58, 1-(4-(3-Chloro-4-fluorobenzyl)pyridin-2-yl)indoline-4-carboxamide] | 7.76 | – | – | –
NC(=O)c1cccc2c1CCN2c1cc(Cc2cc(F)cc(Cl)c2)ccn1 [Compound 42, 1-(4-(3-Chloro-5-fluorobenzyl)pyridin-2-yl)indoline-4-carboxamide] | 12.40 | – | – | –
O=C(NCCO)c1c(F)ccc2c1CCN2c1cc(Cc2cc(F)c(F)c(F)c2)ccn1 [Compound 140, 5-Fluoro-N-(2-hydroxyethyl)-1-(4-(3,4,5-trifluorobenzyl)pyridin-2-yl)indoline-4-carboxamide] | – | 30.1 nM | 68% | –
NC(=O)c1cccc2c1CCN2c1cc(Cc2cccc(C(F)(F)F)c2)ccn1 [Compound 5, 1-(4-(3-(Trifluoromethyl)benzyl)pyridin-2-yl)indoline-4-carboxamide] | – | – | – | 4.49
CC(=O)c1cccc(Cc2ccnc(N3CCc4c(C(N)=O)cccc43)c2)c1 [Compound 78, 1-(4-(3-Acetylbenzyl)pyridin-2-yl)indoline-4-carboxamide] | 1.36 | 11.2 nM | 72% | –
O=C(NC1CCN(CCO)CC1)c1cccc2c1CCN2c1cc(Cc2ccc3c(c2)CCO3)ccn1 [Compound 79, 1-(4-((2,3-Dihydrobenzofuran-5-yl)methyl)pyridin-2-yl)-N-(1-(2-hydroxyethyl)piperidin-4-yl)indoline-4-carboxamide] | 0.16 | – | – | –
COc1ccc(Cc2ccnc(N3CCc4c(C(N)=O)cccc43)c2)cc1F [Compound 54, 1-(4-(3-Fluoro-4-methoxybenzyl)pyridin-2-yl)indoline-4-carboxamide] | 6.32 | 5.57 nM | 66% | –
NC(=O)c1cccc2c1CCN2c1cc(Cc2ccc(F)c(C(F)(F)F)c2)ccn1 [Compound 61, 1-(4-(4-Fluoro-3-(trifluoromethyl)benzyl)pyridin-2-yl)indoline-4-carboxamide] | – | – | 61% | –
CNC(=O)c1cccc2c1CCN2c1cncc(Cc2cccc(C(F)(F)F)c2)c1 [Compound 9, N-Methyl-1-(5-(3-(trifluoromethyl)benzyl)pyridin-3-yl)indoline-4-carboxamide] | – | 7.45 nM | – | –
O=C(N[C@H]1CCOC1)c1cccc2c1CCN2c1ccnc(Cc2cccc(C(F)(F)F)c2)c1 [Compound 3, (S)-N-(Tetrahydrofuran-3-yl)-1-(2-(3-(trifluoromethyl)benzyl)pyridin-4-yl)indoline-4-carboxamide] | – | 10.3 nM | – | –
NC(=O)c1cccc2c1CCN2c1cc(Cc2cccc(OC(F)(F)F)c2)ccn1 [Compound 64, 1-(4-(3-(Trifluoromethoxy)benzyl)pyridin-2-yl)indoline-4-carboxamide] | – | 23.1 nM | – | –
O=C(NCCN1CCNC1=O)c1cccc2c1CCN2c1cc(Cc2cc(F)c(F)c(F)c2)ccn1 [Compound 133, N-(2-(2-Oxoimidazolidin-1-yl)ethyl)-1-(4-(3,4,5-trifluorobenzyl)pyridin-2-yl)indoline-4-carboxamide] | – | 18.3 nM | – | –
O=C(NCCO)c1cccc2c1CCN2c1cc(Cc2cc(F)cc(Cl)c2)ccn1 [Compound 43, 1-(4-(3-Chloro-5-fluorobenzyl)pyridin-2-yl)-N-(2-hydroxyethyl)indoline-4-carboxamide] | 5.45 | 9.76 nM | 79% | –
COc1ccc(Cc2ccnc(N3CCc4c(C(=O)NC5CCN(CCO)CC5)cccc43)c2)cc1F [Compound 91, 1-(4-(3-Fluoro-4-methoxybenzyl)pyridin-2-yl)-N-(1-(2-hydroxyethyl)piperidin-4-yl)indoline-4-carboxamide] | – | 1.06 nM | – | –
O=C(NC[C@H](O)CO)c1cccc2c1CCN2c1cc(Cc2cc(F)cc(C(F)(F)F)c2)ccn1 [Compound 31, (S)-N-(2,3-Dihydroxypropyl)-1-(4-(3-fluoro-5-(trifluoromethyl)benzyl)pyridin-2-yl)indoline-4-carboxamide] | – | 72 nM | – | –
